Results on 18 compounds are retold here after patent US10030027B2, “Soluble guanylate cyclase stimulators” (MERCK SHARP & DOHME CORP., priority 2015, dated 2018).

pEC50, pKi: −log10 of the molar value.

One assay concerns the target sGC α1/β1 heterodimer (Homo sapiens (Human), UniProt Q02108+Q02153). The assay is described as follows: Cell-based sGC functional assay (cyclic GMP assay for sGC activator: CASA assay). The note with it: CHO-K1/sGC cells; for Emax: CHO-K1, activity expressed as percentage of compound A (standard), read-out: % Activation; for pEC50: inflection point, 4P fit, read-out: IP. In outline:
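CHO-K1 cells stably expressing sGC α1/β1 were pre-incubated with or without 1 μM DETA-NO (30 min, 25 °C), then exposed to compounds for 1 hr at 37 °C with 0.5 mM IBMX. Intracellular cGMP was read by HTRF and expressed as a percentage of a reference heme-dependent activator's maximum.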

Assay [1] concerns the target human recombinant sGC enzyme (Homo sapiens (Human), UniProt Q02108+Q02153). The assay is described as follows: Size Exclusion Chromatography (SEC) competition binding assay using [3H] Ex-77B as the radioligand. Conditions: [3H] Ex-77B radioligand, 24 hours at 37° C. In outline: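 Recombinant human sGC binding measured by competition against tritiated Ex-77B radioligand, with non-specific binding defined by 1 μM unlabeled Ex-77B.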

Regarding `CC(C)(Cc1csc([C@]2(C)C(=O)Nc3nc(-c4nn(Cc5ccc(F)cc5)c5cc(Cl)ccc45)nc(N)c32)n1)C(=O)O` [Example 174A, (S)-3-(2-{4-amino-2-[6-chloro-1-(4-fluorobenzyl)-1H-indazol-3-yl]-5-methyl-6-oxo-6,7-dihydro-5H-pyrrolo[2,3-d]pyrimidin-5-yl}-1,3-thiazol-4-yl)-2,2-dimethyl-propanoic acid], at sGC α1/β1 heterodimer, the Emax was 121% and the pEC50 was 6.17. Moreover, in assay [1], the negative logarithm of the Ki (pKi) is 9.76.
Take `CC(C)(Cc1coc(C2(C)C(=O)Nc3nc(-c4nn(Cc5cccc(F)c5)c5cc(Cl)ccc45)nc(N)c32)n1)C(=O)O` (stereo not drawn) [Example 175A, 3-(2-{4-amino-2-[6-chloro-1-(3-fluorobenzyl)-1H-indazol-3-yl]-5-methyl-6-oxo-6,7-dihydro-5H-pyrrolo[2,3-d]pyrimidin-5-yl}-1,3-oxazol-4-yl)-2,2-dimethyl-propanoic acid]: on sGC α1/β1 heterodimer, the Emax was found to be 139% and the pEC50 is 7.02. Besides, the pKi in assay [1] is 9.82.
With `Cc1oc(C2(C)C(=O)Nc3nc(-c4nn(Cc5cccc(F)c5)c5cc(Cl)ccc45)nc(N)c32)nc1CC(C)(C)C(=O)O` (stereo not drawn) [Example 176B, 3-(2-{4-amino-2-[6-chloro-1-(3-fluorobenzyl)-1H-indazol-3-yl]-5-methyl-6-oxo-6,7-dihydro-5H-pyrrolo[2,3-d]pyrimidin-5-yl}-5-methyl-1,3-oxazol-4-yl)-2,2-dimethyl-propanoic acid], at sGC α1/β1 heterodimer, the Emax was determined as 118% and the pEC50 was 5.83. Besides, the pKi in assay [1] is 9.89.
The corresponding values for `CC(C)(CCc1coc(C2(C)C(=O)Nc3nc(-c4nn(Cc5cccc(F)c5)c5cc(Cl)ccc45)nc(N)c32)n1)C(=O)O` (stereo not drawn) [Example 177B, 4-(2-{4-amino-2-[6-chloro-1-(3-fluorobenzyl)-1H-indazol-3-yl]-5-methyl-6-oxo-6,7-dihydro-5H-pyrrolo[2,3-d]pyrimidin-5-yl}-1,3-oxazol-4-yl)-2,2-dimethyl-butanoic acid] are 126%, 6.45 and 9.93.
As to `CC(C)(Cc1coc(C2(C)C(=O)Nc3nc(-c4nn(Cc5ccc(F)cc5F)c5cc(Cl)ccc45)nc(N)c32)n1)C(=O)O` (stereo not drawn) [Example 178A, 3-(2-{4-amino-2-[6-chloro-1-(2,4-difluorobenzyl)-1H-indazol-3-yl]-5-methyl-6-oxo-6,7-dihydro-5H-pyrrolo[2,3-d]pyrimidin-5-yl}-1,3-oxazol-4-yl)-2,2-dimethyl-propanoic acid], on sGC α1/β1 heterodimer, the Emax came to 124% and the pEC50 was 6.37. Besides, in assay [1], the pKi was 9.94.
Regarding `CC(C)(Cc1csc([C@]2(C)C(=O)Nc3nc(-c4nn(Cc5ccc(F)cc5F)c5cc(Cl)ccc45)nc(N)c32)n1)C(=O)O` [Example 179A, (S)-3-(2-{4-amino-2-[6-chloro-1-(2,4-difluorobenzyl)-1H-indazol-3-yl]-5-methyl-6-oxo-6,7-dihydro-5H-pyrrolo[2,3-d]pyrimidin-5-yl}-1,3-thiazol-4-yl)-2,2-dimethyl-propanoic acid], at sGC α1/β1 heterodimer, the Emax stood at 118% and the pEC50 is 6.58. For the same compound, the pKi in assay [1] is 9.84.
Consider `CC(C)(Cc1coc(C2(C)C(=O)Nc3nc(-c4nn(Cc5cccc(F)c5F)c5cc(Cl)ccc45)nc(N)c32)n1)C(=O)O` (stereo not drawn) [Example 180A, 3-(2-{4-amino-2-[6-chloro-1-(2,3-difluorobenzyl)-1H-indazol-3-yl]-5-methyl-6-oxo-6,7-dihydro-5H-pyrrolo[2,3-d]pyrimidin-5-yl}-1,3-oxazol-4-yl)-2,2-dimethyl-propanoic acid], for which, on sGC α1/β1 heterodimer, the Emax was found to be 121% and the pEC50 was 6.64. In addition, the pKi in assay [1] is 10.51.
Turning to `CC(C)(Cc1csc([C@]2(C)C(=O)Nc3nc(-c4nn(Cc5cccc(F)c5F)c5cc(Cl)ccc45)nc(N)c32)n1)C(=O)O` [Example 181A, (S)-3-(2-{4-amino-2-[6-chloro-1-(2,3-difluorobenzyl)-1H-indazol-3-yl]-5-methyl-6-oxo-6,7-dihydro-5H-pyrrolo[2,3-d]pyrimidin-5-yl}-1,3-thiazol-4-yl)-2,2-dimethyl-propanoic acid], on sGC α1/β1 heterodimer, the Emax came out at 112% and the pEC50 is 6.56. Further, the pKi in assay [1] is 10.03.
For `CC(C)(Cc1coc(C2(C)C(=O)Nc3nc(-c4nn(Cc5c(F)cccc5F)c5cc(Cl)ccc45)nc(N)c32)n1)C(=O)O` (stereo not drawn) [Example 182A, 3-(2-{4-amino-2-[6-chloro-1-(2,6-difluorobenzyl)-1H-indazol-3-yl]-5-methyl-6-oxo-6,7-dihydro-5H-pyrrolo[2,3-d]pyrimidin-5-yl}-1,3-oxazol-4-yl)-2,2-dimethyl-propanoic acid], on sGC α1/β1 heterodimer, the Emax was found to be 92% and the pEC50 is 6.62. Further, the pKi in assay [1] is 9.91.
`CC(C)(Cc1csc([C@]2(C)C(=O)Nc3nc(-c4nn(Cc5c(F)cccc5F)c5cc(Cl)ccc45)nc(N)c32)n1)C(=O)O` [Example 183A, (S)-3-(2-{4-amino-2-[6-chloro-1-(2,6-difluorobenzyl)-1H-indazol-3-yl]-5-methyl-6-oxo-6,7-dihydro-5H-pyrrolo[2,3-d]pyrimidin-5-yl}-1,3-thiazol-4-yl)-2,2-dimethyl-propanoic acid]: at sGC α1/β1 heterodimer, the Emax stood at 111% and the pEC50 is 7.06. For the same compound, the pKi in assay [1] is 10.12.
For `CC(C)(Cc1coc(C2(C)C(=O)Nc3nc(-c4nn(Cc5ncccc5F)c5cc(Cl)ccc45)nc(N)c32)n1)C(=O)O` (stereo not drawn) [Example 184A, 3-{2-[4-amino-2-{6-chloro-1-[(3-fluoropyridin-2-yl)methyl]-1H-indazol-3-yl}-5-methyl-6-oxo-6,7-dihydro-5H-pyrrolo[2,3-d]pyrimidin-5-yl]-1,3-oxazol-4-yl}-2,2-dimethyl-propanoic acid], on sGC α1/β1 heterodimer, the Emax is 97.7% and the pEC50 is 6.64. Further, the pKi in assay [1] was 10.04.
`Cc1cccc(Cn2nc(-c3nc(N)c4c(n3)NC(=O)C4(C)c3nc(CC(C)(C)C(=O)O)co3)c3ccc(Cl)cc32)c1` (stereo not drawn) [Example 186A, 3-(2-{4-amino-2-[6-chloro-1-(3-methylbenzyl)-1H-indazol-3-yl]-5-methyl-6-oxo-6,7-dihydro-5H-pyrrolo[2,3-d]pyrimidin-5-yl}-1,3-oxazol-4-yl)-2,2-dimethyl-propanoic acid]: at sGC α1/β1 heterodimer, the Emax turned out to be 83.3% and the pEC50 was 6.69. Also, the pKi in assay [1] was 9.92.
For the compound `Cc1cccc(Cn2nc(-c3nc(N)c4c(n3)NC(=O)C4(C)c3nc(CC(C)(C)C(=O)O)co3)c3ccc(Cl)cc32)c1F` (stereo not drawn) [Example 187A, 3-(2-{4-amino-2-[6-chloro-1-(2-fluoro-3-methyl-benzyl)-1H-indazol-3-yl]-5-methyl-6-oxo-6,7-dihydro-5H-pyrrolo[2,3-d]pyrimidin-5-yl}-1,3-oxazol-4-yl)-2,2-dimethyl-propanoic acid], on sGC α1/β1 heterodimer, the Emax worked out at 97.1% and the pEC50 is 6.61. Moreover, in assay [1], the pKi was 10.54.
On to `Cc1cccc(Cn2nc(-c3nc(N)c4c(n3)NC(=O)[C@@]4(C)c3nc(CC(C)(C)C(=O)O)cs3)c3ccc(Cl)cc32)c1F` [Example 188A, (S)-3-(2-{4-amino-2-[6-chloro-1-(2-fluoro-3-methyl-benzyl)-1H-indazol-3-yl]-5-methyl-6-oxo-6,7-dihydro-5H-pyrrolo[2,3-d]pyrimidin-5-yl}-1,3-thiazol-4-yl)-2,2-dimethyl-propanoic acid], for which, on sGC α1/β1 heterodimer, the Emax amounted to 124% and the pEC50 is 6.96. The pKi in assay [1] was 10.00.
As to `CC(C)(Cc1coc(C2(C)C(=O)Nc3nc(-c4nn(Cc5c(F)ccc(F)c5F)c5cc(Cl)ccc45)nc(N)c32)n1)C(=O)O` (stereo not drawn) [Example 189A, 3-(2-{4-amino-2-[6-chloro-1-(2,3,6-trifluorobenzyl)-1H-indazol-3-yl]-5-methyl-6-oxo-6,7-dihydro-5H-pyrrolo[2,3-d]pyrimidin-5-yl}-1,3-oxazol-4-yl)-2,2-dimethyl-propanoic acid], on sGC α1/β1 heterodimer, the Emax is 116% and the pEC50 is 7.29. For the same compound, in assay [1], the pKi is 10.31.
For `CC(C)(Cc1csc([C@]2(C)C(=O)Nc3nc(-c4nn(Cc5c(F)ccc(F)c5F)c5cc(Cl)ccc45)nc(N)c32)n1)C(=O)O` [Example 190A, (S)-3-(2-{4-amino-2-[6-chloro-1-(2,3,6-trifluoro-benzyl)-1H-indazol-3-yl]-5-methyl-6-oxo-6,7-dihydro-5H-pyrrolo[2,3-d]pyrimidin-5-yl}-1,3-thiazol-4-yl)-2,2-dimethyl-propanoic acid], on sGC α1/β1 heterodimer, the Emax was 120% and the pEC50 is 7.31. The pKi in assay [1] was 10.51.
As for `CC1(c2cccc(C(=O)O)c2)C(=O)Nc2nc(-c3nn(Cc4ccccc4F)c4cc(F)ccc34)nc(N)c21` (stereo not drawn) [Example 191B, 3-{4-amino-2-[6-fluoro-1-(2-fluorobenzyl)-1H-indazol-3-yl]-5-methyl-6-oxo-6,7-dihydro-5H-pyrrolo[2,3-d]pyrimidin-5-yl} benzoic acid], on sGC α1/β1 heterodimer, the Emax stood at 114% and the pEC50 is 6.88. The pKi in assay [1] is 9.96.
As to `CC(C)(Cn1cc(C2(C)C(=O)Nc3nc(-c4nn(Cc5ccccc5F)c5cc(F)ccc45)nc(N)c32)cn1)C(=O)O` (stereo not drawn) [Example 192A, 3-(4-{4-amino-2-[6-fluoro-1-(2-fluorobenzyl)-1H-indazol-3-yl]-5-methyl-6-oxo-6,7-dihydro-5H-pyrrolo[2,3-d]pyrimidin-5-yl}-1H-pyrazol-1-yl)-2,2-dimethyl-propanoic acid], at sGC α1/β1 heterodimer, the Emax came out at 103% and the pEC50 was 5.98. The pKi in assay [1] was 9.94.
